Results taken from patent publication US20090124817A1 (The Industry & Academic Cooperation in Chungnam National …, priority 2007, published 2009).

Legend:
[1] = Specific surface area by gas adsorption (BET); assay type: physicochemical; conditions: BET equation
Protocol: (§1) The particle size and particle size distribution of samples were determined by dynamic light scattering (DLS) using electrophoretic light scattering spectrophotometer (ELS-8000, Otsuka Electronics, Japan) at a fixed angle of 90° and at room temperature. The samples were dispersed in mineral oil (Macrol 52, Exxon Mobil Co., USA) and sonicated before measurement. The particle size and particle size distribution of samples were also determined with a Sympatec laser diffraction analyzer (HELOS/RODOS, Clausthal-Zellerfeld, Germany) consisted of a laser sensor HELOS and a RODOS dry-powder air-dispersion system. The specific surface area was determined using the gas adsorption method. Calculation is based on the BET equation. Surface Area Analyzer ASAP 2010 (Micromeritics Instrument Corporation, USA) was used.

[2] = Particle size by dynamic light scattering / laser diffraction; assay type: physicochemical
Protocol: as §1

[3] = DLS, dispersed in mineral oil, room temperature

## CC(C)c1c(C(=O)Nc2ccccc2)c(-c2ccccc2)c(-c2ccc(F)cc2)n1CC[C@@H](O)C[C@@H](O)CC(=O)[O-].CC(C)c1c(C(=O)Nc2ccccc2)c(-c2ccccc2)c(-c2ccc(F)cc2)n1CC[C@@H](O)C[C@@H](O)CC(=O)[O-].[Ca+2] [Comparative Example 1, atorvastatin calcium, reference compound]
[1]
  Specific surface area: 0.95 m^2/g
[2]; DLS / laser diffraction
  Mean particle size: 7.31 μm

## CC(C)c1c(C(=O)Nc2ccccc2)c(-c2ccccc2)c(-c2ccc(F)cc2)n1CC[C@@H](O)C[C@@H](O)CC(=O)[O-].CC(C)c1c(C(=O)Nc2ccccc2)c(-c2ccccc2)c(-c2ccc(F)cc2)n1CC[C@@H](O)C[C@@H](O)CC(=O)[O-].[Ca+2] [Example 25, atorvastatin calcium]
[1]
  Specific surface area: 120.35 m^2/g
[2]; [3]
  Mean particle size: 65 nm

## CC(C)c1c(C(=O)Nc2ccccc2)c(-c2ccccc2)c(-c2ccc(F)cc2)n1CC[C@@H](O)C[C@@H](O)CC(=O)[O-].CC(C)c1c(C(=O)Nc2ccccc2)c(-c2ccccc2)c(-c2ccc(F)cc2)n1CC[C@@H](O)C[C@@H](O)CC(=O)[O-].[Ca+2] [Example 2, atorvastatin calcium]
[1]
  Specific surface area: 90.28 m^2/g
[2]; [3]
  Mean particle size: 179 nm

## CC(C)c1c(C(=O)Nc2ccccc2)c(-c2ccccc2)c(-c2ccc(F)cc2)n1CC[C@@H](O)C[C@@H](O)CC(=O)[O-].CC(C)c1c(C(=O)Nc2ccccc2)c(-c2ccccc2)c(-c2ccc(F)cc2)n1CC[C@@H](O)C[C@@H](O)CC(=O)[O-].[Ca+2] [Example 18, atorvastatin calcium]
[1]
  Specific surface area: 79.78 m^2/g
[2]; [3]
  Mean particle size: 155 nm

## CC(C)c1c(C(=O)Nc2ccccc2)c(-c2ccccc2)c(-c2ccc(F)cc2)n1CC[C@@H](O)C[C@@H](O)CC(=O)[O-].CC(C)c1c(C(=O)Nc2ccccc2)c(-c2ccccc2)c(-c2ccc(F)cc2)n1CC[C@@H](O)C[C@@H](O)CC(=O)[O-].[Ca+2] [Example 10, atorvastatin calcium]
[1]
  Specific surface area: 30.88 m^2/g
[2]; [3]
  Mean particle size: 727 nm

## CC(C)c1c(C(=O)Nc2ccccc2)c(-c2ccccc2)c(-c2ccc(F)cc2)n1CC[C@@H](O)C[C@@H](O)CC(=O)[O-].CC(C)c1c(C(=O)Nc2ccccc2)c(-c2ccccc2)c(-c2ccc(F)cc2)n1CC[C@@H](O)C[C@@H](O)CC(=O)[O-].[Ca+2] [Example 9, atorvastatin calcium]
[1]
  Specific surface area: 47.82 m^2/g
[2]; [3]
  Mean particle size: 265 nm

## CC(C)c1c(C(=O)Nc2ccccc2)c(-c2ccccc2)c(-c2ccc(F)cc2)n1CC[C@@H](O)C[C@@H](O)CC(=O)[O-].CC(C)c1c(C(=O)Nc2ccccc2)c(-c2ccccc2)c(-c2ccc(F)cc2)n1CC[C@@H](O)C[C@@H](O)CC(=O)[O-].[Ca+2] [Starting material, atorvastatin calcium, reference compound]
[1]
  Specific surface area: 14.56 m^2/g
[2]; DLS / laser diffraction
  Mean particle size: 3.87 μm
